Data taken from US9676714B2, “Sulfonylindole derivatives and method for preparing the same” (Daewoong Pharmaceutical Co., Ltd., priority 2013, dated 2017).
Where a name gives a salt, the structure may show the parent alone.

What was measured:
[1] = target: T1, proton pump (H+/K+-ATPase) (Sus scrofa, UniProt P19156); assay: Measurement of inhibitory effects on proton pump (H+/K+-ATPase) activities; format: biochemical; conditions: hog gastric vesicles, K+-specific H+/K+-ATPase activity, Tris-HCl buffer pH 7.4, 37° C. for 40 minutes, malachite green Pi readout
T1 construct: Gastric vesicles were prepared from hog stomach via centrifugal separation; from tissue; host or cells: hog stomach (gastric vesicles, method of Rabon et al. 1988)
Procedure, shortened: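 Hog gastric vesicles in 60 mmol/l Tris-HCl pH 7.4 with 0.5% DMSO were treated with compounds at room temperature; reaction was started with 10 μl of 10 mmol/l ATP stock. Released Pi was read at 570 nm, K+-specific activity taken as the ±K+ difference. IC50 from 4-parameter logistic fit.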

[2] = system: basal gastric acid secretion; assay: Inhibitory effect on the basal gastric acid secretion in pylorus-ligated rats (Shay's rat model); format: in vivo, Sprague Dawley (SD) rats; conditions: 5 h, male SD rats, 3 mg/kg/2 ml into the duodenum, five hours after the ligation, total gastric acid secretion vs control group
Experimental: 3) Inhibitory Effect on the Basal Gastric Acid Secretion in Pylorus-Ligated Rats
Assays for determining inhibitory effect of the compounds of the present invention on the basal gastric acid secretion was performed according to Shay's rat model (Shay, H., et al., 1945, gastroenterology, 5, p. 43-61). Male Sprague Dawley (SD) rats with a body weight in the range of 180˜220 g were divided into test (n=5) and control groups (n=5), and fasted for 18 hours with free access to water. Under isoflurane anesthesia, the abdomens of the rats were incised and then the pylorus was ligated. After the ligation, the control groups were administered with only 10% ethanol, 20% polyethylene glycol (PEG) 400, and 10% aqueous Cremophor solution through the duodenum, and the other groups were administered with test compounds suspended in 10% ethanol, 20% PEG 400, and 10% aqueous Cremophor solution at a concentration of 3 mg/kg/2 ml into the duodenum. Five hours after the ligation, the experimental animals were euthanized and their stomach contents were collected. The thus obtained contents were centrifuged at 4,000×g for 10 minutes, and the supernatant was recovered to obtain gastric juice therefrom. The amount of the gastric juice and its pH were measured. The acidity of the gastric juice was determined by 0.1 N-NaOH volume (ueq/mL) for automatic titration of gastric acid to pH 7.0. The total acid output was obtained by multiplying the gastric acidity by the amount of gastric juice. Inhibition Activity (%) of Test Compounds=(total gastric acid secretion in control group−total gastric acid secretion in groups treated with test compounds)/total gastric acid secretion in control group×100

T1 sequence (P19156 whole entry): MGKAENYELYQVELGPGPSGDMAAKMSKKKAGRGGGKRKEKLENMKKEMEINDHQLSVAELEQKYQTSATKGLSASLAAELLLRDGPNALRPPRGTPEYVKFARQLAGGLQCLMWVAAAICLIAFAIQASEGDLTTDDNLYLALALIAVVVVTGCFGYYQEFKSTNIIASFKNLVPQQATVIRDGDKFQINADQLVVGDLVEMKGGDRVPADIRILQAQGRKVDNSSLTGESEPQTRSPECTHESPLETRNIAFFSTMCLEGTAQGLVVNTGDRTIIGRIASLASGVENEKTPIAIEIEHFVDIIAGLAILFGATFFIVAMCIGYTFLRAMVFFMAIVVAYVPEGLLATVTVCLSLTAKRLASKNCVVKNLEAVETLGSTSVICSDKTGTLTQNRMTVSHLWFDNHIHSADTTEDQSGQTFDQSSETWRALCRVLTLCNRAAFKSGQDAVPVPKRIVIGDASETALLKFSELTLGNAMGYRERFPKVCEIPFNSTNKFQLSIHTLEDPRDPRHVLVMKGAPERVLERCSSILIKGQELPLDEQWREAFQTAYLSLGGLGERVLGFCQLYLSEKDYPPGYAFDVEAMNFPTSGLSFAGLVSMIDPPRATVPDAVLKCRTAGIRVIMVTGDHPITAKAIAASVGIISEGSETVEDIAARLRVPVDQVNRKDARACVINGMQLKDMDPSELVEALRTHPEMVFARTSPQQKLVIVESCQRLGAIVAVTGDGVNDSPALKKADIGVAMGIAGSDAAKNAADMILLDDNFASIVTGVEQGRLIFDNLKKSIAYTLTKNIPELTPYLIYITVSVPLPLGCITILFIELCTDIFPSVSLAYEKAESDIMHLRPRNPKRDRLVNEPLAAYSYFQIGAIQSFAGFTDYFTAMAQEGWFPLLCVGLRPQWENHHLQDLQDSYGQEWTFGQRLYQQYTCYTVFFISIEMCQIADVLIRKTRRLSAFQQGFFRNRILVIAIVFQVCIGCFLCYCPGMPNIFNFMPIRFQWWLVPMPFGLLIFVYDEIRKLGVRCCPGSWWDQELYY
T1 sequence (P18434 whole entry partner): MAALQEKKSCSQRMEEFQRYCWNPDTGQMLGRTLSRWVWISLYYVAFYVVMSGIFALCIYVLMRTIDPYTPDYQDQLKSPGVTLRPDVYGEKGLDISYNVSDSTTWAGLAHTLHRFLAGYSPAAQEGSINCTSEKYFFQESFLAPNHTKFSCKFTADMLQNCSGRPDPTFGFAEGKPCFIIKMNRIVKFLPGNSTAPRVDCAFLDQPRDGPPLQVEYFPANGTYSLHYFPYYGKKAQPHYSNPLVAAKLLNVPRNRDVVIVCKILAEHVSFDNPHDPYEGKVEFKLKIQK

## CNCc1cn(S(=O)(=O)c2cccnc2)c2cc(Nc3ccc(C)cc3F)ccc12 [Example 1, N-(2-fluoro-4-methylphenyl)-3-((methylamino)methyl)-1-(pyridin-3-ylsulfonyl)-1H-indol-6-amine hydrochloride]
[1]
  IC50: 0.18 µM
[2]
  inhibition in vivo at 3 mg/kg: 58%

## CNCc1cn(S(=O)(=O)c2cccnc2)c2cc(Nc3ccc(C)cc3Cl)ccc12 [Example 22, N-(2-chloro-4-methylphenyl)-3-((methylamino)methyl)-1-(pyridin-3-ylsulfonyl)-1H-indol-6-amine]
[1]
  IC50: 0.21 µM
[2]
  inhibition in vivo at 3 mg/kg: 48%

## CNCc1cn(S(=O)(=O)c2cccnc2)c2cc(Nc3ccc(Cl)cc3F)ccc12 [Example 28, N-(4-chloro-2-fluorophenyl)-3-((methylamino)methyl)-1-(pyridin-3-ylsulfonyl)-1H-indol-6-amine hydrochloride]
[1]
  IC50: 0.74 µM
[2]
  inhibition in vivo at 3 mg/kg: 44%

## CNCc1cn(S(=O)(=O)c2cccnc2)c2cc(Nc3ccc(Cl)cc3Cl)ccc12 [Example 29, N-(2,4-dichlorophenyl)-3-((methylamino)methyl)-1-(pyridin-3-ylsulfonyl)-1H-indol-6-amine hydrochloride]
[1]
  IC50: 0.13 µM
[2]
  inhibition in vivo at 3 mg/kg: 44%

## CNCc1cn(S(=O)(=O)c2cccnc2)c2cc(Nc3ccc(Cl)cc3C(F)(F)F)ccc12 [Example 31, N-(4-chloro-2-(trifluoromethyl)phenyl)-3-((methylamino)methyl)-1-(pyridin-3-ylsulfonyl)-1H-indol-6-amine hydrochloride]
[1]
  IC50: 0.92 µM
[2]
  inhibition in vivo at 3 mg/kg: 41%

## CNCc1cn(S(=O)(=O)c2cccnc2)c2cc(Nc3ccc(C(F)(F)F)cc3Cl)ccc12 [Example 34, N-(2-chloro-4-(trifluoromethyl)phenyl)-3-((methylamino)methyl)-1-(pyridin-3-ylsulfonyl)-1H-indol-6-amine hydrochloride]
[1]
  IC50: 0.39 µM
[2]
  inhibition in vivo at 3 mg/kg: 45%

## CNCc1cn(S(=O)(=O)c2cccnc2)c2cc(Nc3ccc(OC)cc3OC(F)(F)F)ccc12 [Example 50, N-(4-methoxy-2-(trifluoromethoxy)phenyl)-3-((methylamino)methyl)-1-(pyridin-3-ylsulfonyl)-1H-indol-6-amine hydrochloride]
[1]
  IC50: 1.37 µM
[2]
  inhibition in vivo at 3 mg/kg: 67%

## CNCc1cn(S(=O)(=O)c2cccnc2)c2cc(Nc3ccc(OC)cc3[N+](=O)[O-])ccc12 [Example 52, N-(4-methoxy-2-nitrophenyl)-3-((methylamino)methyl)-1-(pyridin-3-ylsulfonyl)-1H-indol-6-amine hydrochloride]
[1]
  IC50: 0.29 µM
[2]
  inhibition in vivo at 3 mg/kg: 70%

## CNCc1cn(S(=O)(=O)c2cccnc2)c2cc(Nc3ccc(OC(F)(F)F)cc3C)ccc12 [Example 53, N-(2-methyl-4-(trifluoromethoxy)phenyl)-3-((methylamino)methyl)-1-(pyridin-3-ylsulfonyl)-1H-indol-6-amine hydrochloride]
[1]
  IC50: 0.49 µM
[2]
  inhibition in vivo at 3 mg/kg: 45%

## CNCc1cn(S(=O)(=O)c2cccnc2)c2cc(Nc3ccc(OC(F)(F)F)cc3Cl)ccc12 [Example 55, N-(2-chloro-4-(trifluoromethoxy)phenyl)-3-((methylamino)methyl)-1-(pyridin-3-ylsulfonyl)-1H-indol-6-amine hydrochloride]
[1]
  IC50: 0.42 µM
[2]
  inhibition in vivo at 3 mg/kg: 55%

## CNCc1cn(S(=O)(=O)c2cccnc2)c2cc(Nc3ccc(OC(F)(F)F)cc3OC)ccc12 [Example 56, N-(2-methoxy-4-(trifluoromethoxy)phenyl)-3-((methylamino)methyl)-1-(pyridin-3-ylsulfonyl)-1H-indol-6-amine hydrochloride]
[1]
  IC50: 0.46 µM
[2]
  inhibition in vivo at 3 mg/kg: 82%

## CNCc1cn(S(=O)(=O)c2cccnc2)c2cc(Nc3ccc(C)c(F)c3F)ccc12 [Example 65, N-(2,3-difluoro-4-methylphenyl)-3-((methylamino)methyl)-1-(pyridin-3-ylsulfonyl)-1H-indol-6-amine hydrochloride]
[1]
  IC50: 0.31 µM
[2]
  inhibition in vivo at 3 mg/kg: 42%

## CNCc1cn(S(=O)(=O)c2cccnc2)c2cc(Nc3cc(F)c(C)cc3F)ccc12 [Example 72, N-(2,5-difluoro-4-methylphenyl)-3-((methylamino)methyl)-1-(pyridin-3-ylsulfonyl)-1H-indol-6-amine hydrochloride]
[1]
  IC50: 0.61 µM
[2]
  inhibition in vivo at 3 mg/kg: 49%

## CNCc1cn(S(=O)(=O)c2cccnc2)c2cc(Nc3cccnc3OC)ccc12 [Example 108, N-(2-methoxypyridin-3-yl)-3-((methylamino)methyl)-1-(pyridin-3-ylsulfonyl)-1H-indol-6-amine hydrochloride]
[1]
  IC50: 1.59 µM
[2]
  inhibition in vivo at 3 mg/kg: 49%

## CNCc1cn(S(=O)(=O)c2cccnc2)c2cc(Nc3ccc(Cl)nc3OC)ccc12 [Example 120, N-(6-chloro-2-methoxypyridin-3-yl)-3-((methylamino)methyl)-1-(pyridin-3-ylsulfonyl)-1H-indol-6-amine hydrochloride]
[1]
  IC50: 0.42 µM
[2]
  inhibition in vivo at 3 mg/kg: 46%

## CNCc1cn(S(=O)(=O)c2cccnc2)c2cc(Nc3ccc(OC)nc3Cl)ccc12 [Example 123, N-(2-chloro-6-methoxypyridin-3-yl)-3-((methylamino)methyl)-1-(pyridin-3-ylsulfonyl)-1H-indol-6-amine hydrochloride]
[1]
  IC50: 0.35 µM
[2]
  inhibition in vivo at 3 mg/kg: 40%

## CNCc1cn(S(=O)(=O)c2cccnc2)c2cc(Nc3ccc(C(F)(F)F)nc3Cl)ccc12 [Example 125, N-(2-chloro-6-(trifluoromethyl)pyridin-3-yl)-3-((methylamino)methyl)-1-(pyridin-3-ylsulfonyl)-1H-indol-6-amine hydrochloride]
[1]
  IC50: 1.06 µM
[2]
  inhibition in vivo at 3 mg/kg: 45%

## CNCc1cn(S(=O)(=O)c2cccnc2)c2cc(Nc3ccnc(Cl)c3Br)ccc12 [Example 133, N-(3-bromo-2-chloropyridin-4-yl)-3-((methylamino)methyl)-1-(pyridin-3-ylsulfonyl)-1H-indol-6-amine hydrochloride]
[1]
  IC50: 0.77 µM
[2]
  inhibition in vivo at 3 mg/kg: 40%

## CNCc1cn(S(=O)(=O)c2cccc(F)c2)c2cc(Nc3ccc(F)cc3C)ccc12 [Example 138, N-(4-fluoro-2-methylphenyl)-1-((3-fluorophenyl)sulfonyl)-3-((methylamino)methyl)-1H-indol-6-amine hydrochloride]
[1]
  IC50: 0.12 µM
[2]
  inhibition in vivo at 3 mg/kg: 55%

## CNCc1cn(S(=O)(=O)c2cccc(F)c2)c2cc(Nc3ccc(OC)cc3F)ccc12 [Example 139, N-(2-fluoro-4-methoxyphenyl)-1-((3-fluorophenyl)sulfonyl)-3-((methylamino)methyl)-1H-indol-6-amine hydrochloride]
[1]
  IC50: 0.18 µM
[2]
  inhibition in vivo at 3 mg/kg: 40%

## CNCc1cn(S(=O)(=O)c2cccc(F)c2)c2cc(Nc3ccc(Cl)nc3OC)ccc12 [Example 141, N-(6-chloro-2-methoxypyridin-3-yl)-1-((3-fluorophenyl)sulfonyl)-3-((methylamino)methyl)-1H-indol-6-amine hydrochloride]
[1]
  IC50: 0.39 µM
[2]
  inhibition in vivo at 3 mg/kg: 51%

## CNCc1cn(S(=O)(=O)c2cccc(F)c2)c2cc(Nc3ccc(Cl)nc3Cl)ccc12 [Example 142, N-(2,6-dichloropyridin-3-yl)-1-((3-fluorophenyl)sulfonyl)-3-((methylamino)methyl)-1H-indol-6-amine hydrochloride]
[1]
  IC50: 0.12 µM
[2]
  inhibition in vivo at 3 mg/kg: 42%

## CNCc1cn(S(=O)(=O)c2cccc(F)c2)c2cc(Nc3ccc(Cl)nc3C(F)(F)F)ccc12 [Example 143, N-(6-chloro-2-(trifluoromethyl)pyridin-3-yl)-1-((3-fluorophenyl)sulfonyl)-3-((methylamino)methyl)-1H-indol-6-amine hydrochloride]
[1]
  IC50: 0.29 µM
[2]
  inhibition in vivo at 3 mg/kg: 53%

## CNCc1cn(S(=O)(=O)c2cccc(F)c2)c2cc(Nc3ccc(OC)nc3Cl)ccc12 [Example 144, N-(2-chloro-6-methoxypyridin-3-yl)-1-((3-fluorophenyl)sulfonyl)-3-((methylamino)methyl)-1H-indol-6-amine hydrochloride]
[1]
  IC50: 0.38 µM
[2]
  inhibition in vivo at 3 mg/kg: 53%

## CNCc1cn(S(=O)(=O)c2cccc(F)c2)c2cc(Nc3ccc(C(F)(F)F)nc3Cl)ccc12 [Example 145, N-(2-chloro-6-(trifluoromethyl)pyridin-3-yl)-1-((3-fluorophenyl)sulfonyl)-3-((methylamino)methyl)-1H-indol-6-amine hydrochloride]
[1]
  IC50: 0.17 µM
[2]
  inhibition in vivo at 3 mg/kg: 45%

## CNCc1cn(S(=O)(=O)c2cccc(F)c2)c2cc(Nc3ccc(C)cc3Cl)ncc12 [Example 359, N-(2-chloro-4-methylphenyl)-1-((3-fluorophenyl)sulfonyl)-3-((methylamino)methyl)-1H-pyrrolo[3,2-c]pyridin-6-amine hydrochloride]
[1]
  IC50: 18.3 µM
